The source of these data is patent US9340537B2, “Benzamide derivatives for inhibiting the activity of ABL1, ABL2 and BCR-ABL1” (NOVATIS AG, priority 2012, dated 2016).

For assay [1], the target named is T1, ABL1 (64-515) (Homo sapiens (Human), UniProt P00519). The experiment in a line: Radio ABL1 (64-515) radiometric filter-binding kinase assay. The note with it: 20 μM ATP. Format: biochemical.
Method: Pre-incubation of enzyme with compounds (when stated) was performed by exposing the enzyme to compounds prior to addition of the substrate mixture (ATP and/or peptide substrate). […] Filter-plates were washed 3× with 0.5% H3PO4, followed by addition of 30 μL scintillation cocktail (Microscint, Perkin Elmer) per well and then analysed in a TopCount NXT scintillation counter (Perkin Elmer). Results were expressed as IC50 values.
For assay [2], the target named is T1, ABL1 (64-515). The experiment in a line: Caliper ABL1 (64-515) microfluidic mobility shift kinase assay. To be noted: read-out: Caliper ABL1 (64-515) IC50.

Where only a bound is given, the exact number is not on record here.

T1 sequence (P00519 64-515): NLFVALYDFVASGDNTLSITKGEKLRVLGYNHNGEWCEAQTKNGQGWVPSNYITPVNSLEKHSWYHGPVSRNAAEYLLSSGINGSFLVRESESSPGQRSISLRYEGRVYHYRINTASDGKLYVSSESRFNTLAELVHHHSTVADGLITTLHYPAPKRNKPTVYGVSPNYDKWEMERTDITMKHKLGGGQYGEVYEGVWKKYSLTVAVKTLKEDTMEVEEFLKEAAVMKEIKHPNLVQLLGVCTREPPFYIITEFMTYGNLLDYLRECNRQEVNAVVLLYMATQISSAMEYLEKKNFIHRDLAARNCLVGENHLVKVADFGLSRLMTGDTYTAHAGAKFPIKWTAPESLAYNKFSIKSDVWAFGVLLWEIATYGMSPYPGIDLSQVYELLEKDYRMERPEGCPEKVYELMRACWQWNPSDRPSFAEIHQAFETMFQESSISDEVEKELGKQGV

On to `O=C(Nc1ccc(OC(F)(F)F)cc1)c1cnc(N2CCCC2)c(-c2ccn[nH]2)c1` [Example 15, 5-(1H-Pyrazol-5-yl)-6-(pyrrolidin-1-yl)-N-(4-(trifluoromethoxy)phenyl)nicotinamide], for which the IC50 (usually the concentration needed to halve the response being measured) on ABL1 (64-515) [1] was < 3 nM; at ABL1 (64-515) [2], 0.8 nM.
Taken in the same sequence, the figures for `CN(CCO)c1ncc(C(=O)Nc2ccc(SC(F)(F)F)cc2)cc1-c1ccn[nH]1` [Example 26, 6-((2-Hydroxyethyl)(methyl)amino)-5-(1H-pyrazol-5-yl)-N-(4-((trifluoromethyl)thio)phenyl)nicotinamide] were 11 nM and 1 nM.
Taken in the same sequence, the figures for `CN(C)C1CN(c2ncc(C(=O)Nc3ccc(OC(F)(F)Cl)cc3)cc2-c2ccn[nH]2)C1` [Example 65, N-(4-(Chlorodifluoromethoxy)phenyl)-6-(3-(dimethylamino)azetidin-1-yl)-5-(1H-pyrazol-5-yl)nicotinamide] were 5.6 nM and 0.9 nM.
Turning to `O=C(Nc1ccc(OC(F)(F)Cl)cc1)c1cnc(N2CCN(CC(F)F)CC2)c(-c2ccn[nH]2)c1` [Example 59, N-(4-(Chlorodifluoromethoxy)phenyl)-6-(4-(2,2-difluoroethyl)piperazin-1-yl)-5-(1H-pyrazol-5-yl)nicotinamide], the half-maximal inhibitory concentration (IC50) on ABL1 (64-515) [1] is 26 nM; at ABL1 (64-515) [2], 3.3 nM.
Taken in the same sequence, the figures for `NC12CC1CN(c1ncc(C(=O)Nc3ccc(OC(F)(F)Cl)cc3)cc1-c1ccn[nH]1)C2` (centres unmarked) [Example 54, 6-(1-Amino-3-azabicyclo[3.1.0]hexan-3-yl)-N-(4-(chlorodifluoromethoxy)phenyl)-5-(1H-pyrazol-5-yl)nicotinamide] were 1 nM and 0.4 nM.
In the same order, the values of `NCC1(F)CCN(c2ncc(C(=O)Nc3ccc(OC(F)(F)Cl)cc3)cc2-c2ccn[nH]2)C1` (centres unmarked) [Example 51, 6-(3-(Aminomethyl)-3-fluoropyrrolidin-1-yl)-N-(4-(chlorodifluoromethoxy)phenyl)-5-(1H-pyrazol-5-yl)nicotinamide] are 4.9 nM and 1.1 nM.
With `Cn1c(C#N)ccc1-c1cc(C(=O)Nc2ccc(OC(F)(F)Cl)cc2)cnc1N1CC[C@@H](O)C1` [Example 47, (R)—N-(4-(Chlorodifluoromethoxy)phenyl)-5-(5-cyano-1-methyl-1H-pyrrol-2-yl)-6-(3-hydroxypyrrolidin-1-yl)nicotinamide], the IC50 came to 0.9 nM at ABL1 (64-515) [1] and 1.6 nM at ABL1 (64-515) [2].
Taken in the same sequence, the figures for `O=C(Nc1ccc(OC(F)(F)Cl)cc1)c1cnc(N2CCN(CCF)CC2)c(-c2ccn[nH]2)c1` [Example 58, N-(4-(Chlorodifluoromethoxy)phenyl)-6-(4-(2-fluoroethyl)piperazin-1-yl)-5-(1H-pyrazol-5-yl)nicotinamide] were 5.7 nM and 2.4 nM.
Take `CN(CCO)c1ncc(C(=O)Nc2ccc(OC(F)(F)Cl)cc2)cc1-c1ccn[nH]1` [Example 23, N-(4-(Chlorodifluoromethoxy)phenyl)-6-((2-hydroxyethyl)(methyl)amino)-5-(1H-pyrazol-5-yl)nicotinamide]: the IC50 on ABL1 (64-515) [1] came out at 2.7 nM; at ABL1 (64-515) [2], 3.4 nM.
In the same order, the values of `NC[C@H]1CN(c2ncc(C(=O)Nc3ccc(OC(F)(F)Cl)cc3)cc2-c2ccn[nH]2)C[C@H]1O` (relative stereo) [Example 80, 6-(cis-3-(Aminomethyl)-4-hydroxypyrrolidin-1-yl)-N-(4-(chlorodifluoromethoxy)phenyl)-5-(1H-pyrazol-5-yl)nicotinamide] are 0.4 nM and < 0.13 nM.
On to `O=C(Nc1ccc(OC(F)(F)F)cc1)c1cnc(N2CC(CO)C2)c(-c2ccn[nH]2)c1` [Example 39, 6-(3-(Hydroxymethyl)azetidin-1-yl)-5-(1H-pyrazol-5-yl)-N-(4-(trifluoromethoxy)phenyl)nicotinamide], for which the IC50 on ABL1 (64-515) [1] was 3 nM; at ABL1 (64-515) [2], 4.5 nM.
With `CO[C@H]1CN(c2ncc(C(=O)Nc3ccc(OC(F)(F)Cl)cc3)cc2-c2ccn[nH]2)C[C@@H]1N` (relative stereo) [Example 79, 6-(trans-3-Amino-4-methoxypyrrolidin-1-yl)-N-(4-(chlorodifluoromethoxy)phenyl)-5-(1H-pyrazol-5-yl)nicotinamide], the IC50 on ABL1 (64-515) [1] was found to be 1 nM; at ABL1 (64-515) [2] it was 0.7 nM.
In the same order, the values of `N[C@H]1CN(c2ccc(C(=O)Nc3ccc(OC(F)(F)Cl)cc3)cc2-c2ccn[nH]2)C[C@@H]1O` [Example 76, 4-((3S,4S)-3-Amino-4-hydroxypyrrolidin-1-yl)-N-(4-(chlorodifluoromethoxy)phenyl)-3-(1H-pyrazol-5-yl)benzamide] are 3 nM and 1.4 nM.
Taken in the same sequence, the figures for `O=C(Nc1ccc(OC(F)(F)Cl)cc1)c1cnc(N2CCC[C@@H](O)C2)c(-c2ccn[nH]2)c1` [Example 87, (R)—N-(4-(Chlorodifluoromethoxy)phenyl)-6-(3-hydroxypiperidin-1-yl)-5-(1H-pyrazol-5-yl)nicotinamide] were 3 nM and 1.3 nM.
Taken in the same sequence, the figures for `O=C(Nc1ccc(OC(F)(F)Cl)cc1)c1cnc(N2CCC[C@H](O)C2)c(-c2ccn[nH]2)c1` [Example 86, (S)—N-(4-(Chlorodifluoromethoxy)phenyl)-6-(3-hydroxypiperidin-1-yl)-5-(1H-pyrazol-5-yl)nicotinamide] were 4 nM and 1.5 nM.
As to `N#Cc1ccc(-c2cc(C(=O)Nc3ccc(OC(F)(F)F)cc3)cnc2N2C[C@H](O)[C@@H](O)C2)[nH]1` [Example 31, 5-(5-Cyano-1H-pyrrol-2-yl)-6-((3S,4S)-3,4-dihydroxypyrrolidin-1-yl)-N-(4-(trifluoromethoxy)phenyl)nicotinamide], the IC50 at ABL1 (64-515) [1] was < 0.1 nM; on ABL1 (64-515) [2], < 0.13 nM.
In the same order, the values of `CO[C@H]1CN(c2ccc(C(=O)Nc3ccc(OC(F)(F)F)cc3)cc2-c2cncs2)C[C@@H]1O` (relative stereo) [Example 4, 4-(trans-3-Hydroxy-4-methoxypyrrolidin-1-yl)-3-(thiazol-5-yl)-N-(4-(trifluoromethoxy)phenyl)benzamide] are 4 nM and 4.2 nM.
In the same order, the values of `Cc1ncc(-c2cc(C(=O)Nc3ccc(OC(F)(F)F)cc3)cnc2N2CC[C@H](CO)C2)s1` [Example 16, (S)-6-(3-(Hydroxymethyl)pyrrolidin-1-yl)-5-(2-methylthiazol-5-yl)-N-(4-(trifluoromethoxy)phenyl)nicotinamide] are < 3 nM and 1.1 nM.
`CN(C)C1CN(c2ncc(C(=O)Nc3ccc(OC(F)(F)F)cc3)cc2-c2ccn[nH]2)C1` [Example 38, 6-(3-(Dimethylamino)azetidin-1-yl)-5-(1H-pyrazol-5-yl)-N-(4-(trifluoromethoxy)phenyl)nicotinamide]: the IC50 is 8 nM at ABL1 (64-515) [1] and 1.5 nM at ABL1 (64-515) [2].
Taken in the same sequence, the figures for `O=C(Nc1ccc(OC(F)(F)Cl)cc1)c1cnc(N2CC3(CNC3)C2)c(-c2ccn[nH]2)c1` [Example 68, N-(4-(Chlorodifluoromethoxy)phenyl)-5-(1H-pyrazol-5-yl)-6-(2,6-diazaspiro[3.3]heptan-2-yl)nicotinamide] were 2 nM and < 0.13 nM.
Taken in the same sequence, the figures for `N#Cc1ccc(-c2cc(C(=O)Nc3ccc(OC(F)(F)Cl)cc3)cnc2N2C[C@H](O)[C@@H](O)C2)[nH]1` [Example 46, N-(4-(Chlorodifluoromethoxy)phenyl)-5-(5-cyano-1H-pyrrol-2-yl)-6-((3S,4S)-3,4-dihydroxypyrrolidin-1-yl)nicotinamide] were 1 nM and 0.4 nM.
Taken in the same sequence, the figures for `O=C(Nc1ccc(OC(F)(F)F)cc1)c1ccc(N2C[C@H](O)[C@@H](O)C2)c(-c2ccc[nH]2)c1` [Example 28, 4-((3S,4S)-3,4-Dihydroxypyrrolidin-1-yl)-3-(1H-pyrrol-2-yl)-N-(4-(trifluoromethoxy)phenyl)benzamide] were 3 nM and 4.2 nM.
In the case of `O=C(Nc1ccc(OC(F)(F)Cl)cc1)c1cnc(N2CCN(C3CC3)CC2)c(-c2ccn[nH]2)c1` [Example 57, N-(4-(Chlorodifluoromethoxy)phenyl)-6-(4-cyclopropylpiperazin-1-yl)-5-(1H-pyrazol-5-yl)nicotinamide], the IC50 is 5.8 nM on ABL1 (64-515) [1] and 3.4 nM on ABL1 (64-515) [2].
Taken in the same sequence, the figures for `Cc1cc(-c2cc(C(=O)Nc3ccc(OC(F)(F)F)cc3)cnc2N2CC(CO)C2)[nH]n1` [Example 42, 6-(3-(Hydroxymethyl)azetidin-1-yl)-5-(3-methyl-1H-pyrazol-5-yl)-N-(4-(trifluoromethoxy)phenyl)nicotinamide] were 2 nM and 18 nM.
In the same order, the values of `CN(CCO)c1ccc(C(=O)Nc2ccc(OC(F)(F)F)cc2)cc1-c1cncs1` [Example 20, 4-((2-Hydroxyethyl)(methyl)amino)-3-(thiazol-5-yl)-N-(4-(trifluoromethoxy)phenyl)benzamide] are < 3 nM and 5 nM.
In the case of `O=C(Nc1ccc(SC(F)(F)F)cc1)c1cnc(N2CC[C@@H](O)C2)c(-c2ccc[nH]2)c1` [Example 25, (R)-6-(3-Hydroxypyrrolidin-1-yl)-5-(1H-pyrrol-2-yl)-N-(4-((trifluoromethyl)thio)phenyl)nicotinamide], the IC50 amounted to 3.7 nM on ABL1 (64-515) [1] and 2.6 nM on ABL1 (64-515) [2].
Taken in the same sequence, the figures for `Cc1cc(-c2cc(C(=O)Nc3ccc(OC(F)(F)Cl)cc3)ccc2N2C[C@H](N)[C@@H](O)C2)[nH]n1` [Example 84, 4-((3S,4S)-3-Amino-4-hydroxypyrrolidin-1-yl)-N-(4-(chlorodifluoromethoxy)phenyl)-3-(3-methyl-1H-pyrazol-5-yl)benzamide] were 2 nM and 0.8 nM.
Taken in the same sequence, the figures for `O=C(Nc1ccc(OC(F)(F)Cl)cc1)c1cnc(N2CCN(CC(F)(F)F)CC2)c(-c2ccn[nH]2)c1` [Example 60, N-(4-(Chlorodifluoromethoxy)phenyl)-5-(1H-pyrazol-5-yl)-6-(4-(2,2,2-trifluoroethyl)piperazin-1-yl)nicotinamide] were 1 nM and < 0.64 nM.
